Assay results reported in patent publication US11912650B2, “Bakuchiol derivatives, pharmaceutically acceptable salts thereof, and preparation method and use of the same” (priority 2020, dated 2024).
Values after ≈ are worked out from the molar mass of the structure shown. Where a SMILES comes first, the peptide text is derived from it. The star is where a group is joined. X1 = C=C[C@](C)(/C=C/c1ccc(OCC(=O)*)cc1)CCC=C(C)C

Experiments:
[1] = tested on: E. coli ATCC25922; assay: Antibacterial activity assay (broth dilution MIC); format: cell-based; conditions: Escherichia coli, 37° C., 24 h, compounds 38, 44-45, 58-61, 63-64 with 0.05% Tween 80
Method: (§1) Antibacterial activity assay. The antibacterial activities of all the compounds were determined according to a broth dilution method specified in Clinical and Laboratory Standards Institute (CLSI) guidelines. Bacterial cells were inoculated on a Mueller-Hinton agar (MHA) plate for overnight culture, and the concentration of the bacterial cells was adjusted to about 1×10^6 colony-forming units (CFU)/mL with phosphate buffered saline (PBS). First, a 1000 μg/mL stock solution (a final concentration of dimethyl sulfoxide (DMSO) was ≤2%) was prepared by dissolving a sample in DMSO/H2O. Then, the stock solution was diluted with Mueller-Hinton Broth (MHB) to an initial concentration of 100 μg/mL, and the sample solution (100 μL) was subjected to two-fold gradient dilution with MHB in a 96-well plate, to obtain 100 μg/mL to 0.78 μg/mL serial dilutions. Then, a bacterial suspension (100 μL) was added to each well of the 96-well plate and mixed with the test sample solution (100 μL). Among them, test systems for compounds 38, 44-45, 58-61 and 63-64 contained 0.05% of Tween 80. Finally, the 96-well plate was incubated at 37° C. for 24 hours. Absorbances at 600 nm at 0 and 24 h were measured. An minimum inhibitory concentration (MIC) value was defined as the lowest concentration where no visible bacterial growth occurred. All experiments were carried out in at least two duplicates, and biological repeatability could be achieved.

[2] = tested on: S. aureus ATCC29213; assay: Antibacterial activity assay (broth dilution MIC); format: cell-based; conditions: Staphylococcus aureus, 37° C., 24 h, compounds 38, 44-45, 58-61, 63-64 with 0.05% Tween 80
Method: as §1

[3] = tested on: MRSA N315; assay: Antibacterial activity assay (broth dilution MIC); format: cell-based, methicillin-resistant Staphylococcus aureus; conditions: Staphylococcus aureus, 37° C., 24 h, compounds 38, 44-45, 58-61, 63-64 with 0.05% Tween 80
Method: as §1

[4] = tested on: MRSA NCTC10442; assay: Antibacterial activity assay (broth dilution MIC); format: cell-based, methicillin-resistant Staphylococcus aureus; conditions: Staphylococcus aureus, 37° C., 24 h, compounds 38, 44-45, 58-61, 63-64 with 0.05% Tween 80
Method: as §1

[5] = tested on: Gram-positive bacteria; assay: Antibacterial activity against Gram-positive bacteria (MIC summary); format: cell-based; conditions: 24 h; summary of tables 1 and 2; read-out: minimum inhibitory concentration (MIC) against Gram-positive bacteria
Method: as §1

[6] = tested on: Gram-negative bacteria; assay: Antibacterial activity against Gram-negative bacteria (MIC summary); format: cell-based; conditions: 24 h; summary of tables 1 and 2
Method: as §1

[7] = tested on: rabbit red blood cells; assay: Hemolytic activity assay; format: cell-based
Method: Hemolytic activity assay. Rabbit red blood cells were centrifuged at 2500 rpm for 3 minutes and then washed twice with PBS. Subsequently, a 8% (v/v) cell suspension was prepared by resuspending the rabbit red blood cells with PBS. A sample was first dissolved in DMSO or PBS (a final concentration of DMSO was ≤0.5%), and then diluted with PBS to prepare two-fold gradient dilutions (400 μg/mL to 3.125 μg/mL). The rabbit red blood cell suspension ([…]) was mixed with the two-fold gradient dilutions ([…]) of the sample. Then, the mixture was added to a sterile 96-well plate, incubated at 37° C. for 1 hour, and then centrifuged at 2500 rpm for 5 minutes. Among them, test systems for compounds 38, 44-45, 58-61 and 63-64 contained 0.05% of Tween 80. The supernatant (100 μL) was transferred to a new 96-well plate. Absorbance at 576 nm was measured using a Biotek multifunctional microplate reader. The positive control group was treated with a 2% Triton X-100 solution, and the negative control group was treated with PBS or 0.5% DMSO. The hemolytic activity was calculated by the following equation: % hemolytic activity=[(Abssample−Absnegative control)/(Abspositive control−Absnegative control)]×100. All experiments were carried out in at least two duplicates, and biological repeatability could be achieved.

[8] = tested on: mouse fibroblasts NCTC clone 929; assay: Toxicity to mammalian cells (CCK-8); format: cell-based; conditions: 100 μg/mL, 24 h
Method: Assay of toxicity to mammalian cells. The cytotoxicities of a compound to be tested to mouse fibroblasts NCTC clone 929, mouse corneal cells CM120 and human hepatocellular carcinoma cells Hep-G2 were evaluated by a CCK-8 method. Cells were inoculated to a 96-well plate according to the cell amount described in a CCK-8 kit (Beyotime, PRC) specification, and cultured at 37° C. with 5% CO2 for 24 h. Then, a specific concentration of the sample to be tested was added to each well. Inoculation was further performed at 37° C. in an incubator for 24 h. Finally, a CCK-8 solution having a final concentration of 10% was added to each well. Incubation was further performed in the incubator for 1.0 h before absorbance at 450 nm (OD450) of the solution was measured by a microplate reader. According to formula (2), the cytotoxicity of the sample to be tested could be obtained:
[formula] • Asample: absorbance of a well with cells, a CCK8 solution and a sample solution to be tested; • Ablank: absorbance of a well with a culture medium and a CCK8 solution but without cells; and • Ano sample: absorbance of a well with cells and a CCK8 solution but without a sample solution to be tested.

[9] = tested on: S. aureus ATCC29213; assay: Mouse model of bacterial peritonitis (abdominal infection); format: in vivo; conditions: 58 5 mg/kg intravenously every 4 hours; vancomycin 20 mg/kg IP; 5 mice per group
Method: CD-1 mice (6-8 weeks, with an average weight of 25 g) were used as an abdominal infection model. First, the mice were injected with S. aureus ATCC29213 (OD600≈1.0) intraperitoneally, and the mice were randomized into three groups (5 mice per group). After 1 hour of infection, one group was dosed with 58 (5 mg/kg) intravenously for treatment, once every 4 hours; and meanwhile, one group dosed with vancomycin (20 mg/kg, IP) was used as a positive control group, and the other group dosed with a 0.9% sodium chloride injection was used as a blank control group. After two days of treatment, the survival rate of the mice was investigated.

[10] = Pharmacokinetic characteristics in mice; format: in vivo
[11] = tested on: S. aureus ATCC29213; assay: Evaluation of development tendency of drug resistance; format: cell-based; conditions: S. aureus ATCC29213, passage at 0.5×MIC
Method: Evaluation of development tendency of drug resistance. Initial MIC values of compound 60, norfloxacin and gatifloxacin against S. aureus ATCC29213 were obtained by the above MIC determination method. Bacterial cells in a 96-well plate with a concentration of 0.5×MIC were taken out to prepare a bacterial suspension (about 1×10^6 CFU/mL) for the next MIC value determination. After incubating the sample at 37° C. for 24 hours, the change in the MIC value of each compound was measured. This experiment was carried out consecutively for 15 days.

[12] = tested on: S. aureus ATCC29213; assay: Mouse model of bacterial keratitis (cornea infection); format: in vivo; conditions: topical four times a day for three days; 0.5% compound 60, 5% vancomycin; P<0.01
Method: Evaluation of in vivo efficacy. The experiment for evaluating in vivo antibacterial efficacy of animals had been approved by the Laboratory Animal Center of South China Agricultural University and was carried out according to the policy of the Ministry of Health of the People's Republic of China. Female C57BL6 mice (6-8 weeks, with an average weight of 20 g) were used as a bacterial keratitis model. In order to establish an immunosuppressive mouse model, cyclophosphamide (100 mg/kg) was injected intraperitoneally to mice three times 5 days before infection. Bacterial cells (S. aureus ATCC 29213) inoculated onto a Mueller Hinton agar (MHA) plate were suspended with PBS, and the concentration of the bacterial cells was adjusted to about 5×10^7 CFU/mL for corneal infection in mice. First, the mice were anesthetized. Then, the cornea of the left eye of the mouse was scratched with a sterile needle, and 15 μL of bacterial suspension was dropped on the injured cornea. One day after infection, the mice were randomized into three groups (5 mice per group). Three compounds (0.5% 60, 5% glucose solution and 5% vancomycin) were applied topically four times a day for consecutive three days, respectively. […] Viable bacteria were counted by an MHA plate counting method. the P value was calculated using SPSS 22.0 software and P≤0.05 was considered as being statistically significant.

Row | Structure (SMILES) | MIC [1] | MIC [2] | MIC [3] | MIC [4] | MIC [5] | MIC [6] | HC50 (concentration necessary to lyse 50% rabbit red blood cells) ([7]; rabbit red blood cells, 37° C., 1 hour) | cell survival rate, mouse fibroblasts NCTC clone 929 ([8]; CCK-8) | survival rate of mice after two days of treatment [9] | pharmacokinetic characteristics in mice [10] | cell survival rate, mouse fibroblasts NCTC clone 929 ([8]; mouse) | HC50 (concentration necessary to lyse 50% rabbit red blood cells) ([7]; rabbit, 1 h) | change in MIC value after 15 days of continuous passage [11] | reduction of the number of bacteria in the infected mouse cornea [12]
1 | C=C[C@@](C)(/C=C/c1ccc(OCCCCN(CCCN(C)C)CCCN(C)C)cc1)CCC=C(C)C [Compound 28] | 3.12 µg/mL (≈ 6.28 µM) | 1.56 µg/mL (≈ 3.13 µM) | 1.56 µg/mL (≈ 3.13 µM) | 1.56 µg/mL (≈ 3.13 µM) | 0.39 to 3.12 µg/mL (≈ 0.783 to 6.28 µM) | 1.56 to 3.12 µg/mL (≈ 3.13 to 6.28 µM) | 112.9 ± 5.0 µg/mL |  |  |  |  |  |  | 
2 | C=C[C@](C)(/C=C/c1ccc(OCC(=O)N[C@@H](CCCNC(=N)N)C(=O)N[C@@H](CCCNC(=N)N)C(=O)N[C@@H](CCCNC(=N)N)C(N)=O)cc1)CCC=C(C)C [Compound 58] | 12.5 µg/mL (≈ 16 µM) | 0.39 µg/mL (≈ 0.499 µM) | 0.39 µg/mL (≈ 0.499 µM) | 0.39 µg/mL (≈ 0.499 µM) | 0.39 to 3.12 µg/mL (≈ 0.499 to 4 µM) |  |  | 89.3±0.600 | 100% | excellent pharmacokinetic characteristics |  |  |  | 
3 | C=C[C@](C)(/C=C/c1ccc(OCC(=O)N[C@@H](CCCNC(=N)N)C(=O)N[C@@H](CCCNC(=N)N)C(=O)N[C@@H](CCCNC(=N)N)C(=O)N[C@@H](CCCNC(=N)N)C(=O)OC)cc1)CCC=C(C)C [Compound 60] (X1-RRRR-OMe) | 12.5 µg/mL (≈ 13.1 µM) | 0.39 µg/mL (≈ 0.409 µM) | 0.39 µg/mL (≈ 0.409 µM) | 0.78 µg/mL (≈ 0.818 µM) | 0.39 to 3.12 µg/mL (≈ 0.409 to 3.28 µM) |  |  |  |  |  | 93.7±0.700 | more than 400 μg/mL | does not change significantly | 4.48 log
4 | C=C[C@](C)(/C=C/c1ccc(OCC(=O)N[C@@H](CCCNC(=N)N)C(=O)N[C@@H](CCCNC(=N)N)C(=O)N[C@@H](CCCNC(=N)N)C(=O)N[C@@H](CCCNC(=N)N)C(N)=O)cc1)CCC=C(C)C [Compound 61] (X1-RRRR-NH2) | 25 µg/mL (≈ 26.6 µM) | 0.78 µg/mL (≈ 0.831 µM) | 0.39 µg/mL (≈ 0.416 µM) | 0.78 µg/mL (≈ 0.831 µM) | 0.39 to 3.12 µg/mL (≈ 0.416 to 3.33 µM) |  |  |  |  |  |  | more than 400 μg/mL |  | 
5 | C=C[C@](C)(/C=C/c1ccc(OCC(=O)N[C@@H](CCCNC(=N)N)C(=O)N[C@@H](CCCNC(=N)N)C(=O)N[C@@H](CCCNC(=N)N)C(=O)N2CCN(c3ccc(N4C[C@H](CNC(C)=O)OC4=O)cc3F)CC2)cc1)CCC=C(C)C [Compound 63] | 3.12 µg/mL (≈ 2.84 µM) | 0.78 µg/mL (≈ 0.708 µM) | 0.78 µg/mL (≈ 0.708 µM) | 0.78 µg/mL (≈ 0.708 µM) | 0.39 to 3.12 µg/mL (≈ 0.354 to 2.84 µM) | 1.56 to 3.12 µg/mL (≈ 1.42 to 2.84 µM) |  |  |  |  |  |  |  | 
6 | C=C[C@](C)(/C=C/c1ccc(OCC(=O)N[C@@H](CCCNC(=N)N)C(=O)N[C@@H](CCCNC(=N)N)C(=O)N[C@@H](CCCNC(=N)N)C(=O)N[C@@H](CCCNC(=N)N)C(=O)N[C@@H](CCCNC(=N)N)C(=O)N[C@@H](CCCNC(=N)N)C(=O)OC)cc1)CCC=C(C)C [Compound 64] | 25 µg/mL (≈ 19.8 µM) | 1.56 µg/mL (≈ 1.23 µM) | 1.56 µg/mL (≈ 1.23 µM) | 1.56 µg/mL (≈ 1.23 µM) | 0.39 to 3.12 µg/mL (≈ 0.308 to 2.47 µM) |  |  |  |  |  |  | more than 400 μg/mL |  | 
7 | CCn1cc(C(=O)O)c(=O)c2cc(F)c(N3CCNCC3)cc21 [norfloxacin, reference compound] |  |  |  |  |  |  |  |  |  |  |  |  | 16 fold | 
8 | CN[C@H](CC(C)C)C(=O)N[C@H]1C(=O)N[C@@H](CC(N)=O)C(=O)N[C@H]2C(=O)N[C@H]3C(=O)N[C@H](C(=O)N[C@H](C(=O)O)c4cc(O)cc(O)c4-c4cc3ccc4O)[C@H](O)c3ccc(c(Cl)c3)Oc3cc2cc(c3O[C@@H]2O[C@H](CO)[C@@H](O)[C@H](O)[C@H]2O[C@H]2C[C@](C)(N)[C@H](O)[C@H](C)O2)Oc2ccc(cc2Cl)[C@H]1O [vancomycin, reference compound] |  |  |  |  |  |  |  |  | 100% |  |  |  |  | 4.16 log
